Assay results reported in patent publication US9018244B2, “Benzopyran compounds, compositions and uses thereof” (Olema Pharmaceuticals, Inc., priority 2011, dated 2015).
“Also recorded” adds a separate entry of the source.

Legend:
[1] = system: human MCF-7 breast cancer cells; experiment: E2-stimulated proliferation of MCF-7 breast cancer cells; format: cell-based; conditions: MCF-7 cells, 100 pM E2, 6-8 days
Description: FIG. 11. […] A) OP-1074 had similar potency to model anti-estrogens in inhibiting E2-stimulated proliferation of breast cells in vitro. MCF-7 cells were treated with anti-estrogens in hormone-depleted medium for 6-8 days in the presence of 100 pM E2. Proliferation was measured using Cyquant fluorescent DNA-binding dye (Invitrogen, Grand Island, N.Y.). Results were from a single representative experiment and reported as the mean percent induction relative to E2 from triplicate treatments, with error bars representing SEM. […] Results were from a single representative experiment and reported as the mean percent induction relative to E2 from triplicate treatments, with error bars representing SEM. IC50's were calculated using the least squares fit method.
Proliferation in MCF-7 was measured using a fluorescent DNA binding dye 6-8 days after treatment in triplicate with anti-estrogens in the presence of 100 pM E2 and as described in the legend to, and depicted in FIG. 11.

mouse uterus = experiment: Uterine wet weight in ovariectomized BALB/c mice; format: in vivo; conditions: for Uterine wet weight, agonist mode (without E2): q.d. three days, 100 mg/ml OP-1038 p.o. in 0.5% CMC; for Uterine wet weight, antagonist mode (+E2): three days, co-treated with 0.1 μg/ml E2 sc
Description: FIG. 9. […] Uterine wet weight was measured at the end of three days after treating ovariectomized BALB/c mice q.d. with vehicle or one of the following treatments (10 mice per group): 50 mg/kg tamoxifen p.o. in 0.5% carboxymethylcellulose (CMC); 50 mg/kg fulvestrant sc in 5% ethanol; […] OP-1038 p.o. in 0.5% CMC. Half the animals in each group were co-treated with 0.1 μg/ml E2 sc in cottonseed oil-ethanol (95:5), or vehicle alone. Animal experiments were conducted at the University of California, San Francisco following institutional animal care and use committee protocols.

[2] = system: E2-stimulated AP activity in ECC-1 cells; experiment: Inhibition of E2-stimulated AP activity in ECC-1 cells (antagonist mode); format: cell-based, human; conditions: in the presence of 500 pM E2
From the text: FIG. 2. Alkaline phosphatase (AP) activity in ECC-1 cells correlates with the uterine wet weight of ovariectomized rats, as reported previously in Scafonas, et al. (*; Scafonas et al. “Agonist-like SERM effects on ER alpha-mediated repression of MMPI promoter activity predict in vivo effects on bone and uterus. J Steroid Biochem Mol. Biol. 2008 110(3-5):197-206) and Labrie, et al. (†; Labrie et al. “The combination of a novel selective estrogen receptor modulator with an estrogen protects the mammary gland and uterus in a rodent model: the future of postmenopausal women's health?” Endocrinology. 2003 144(11):4700-6). ECC-1 cells were treated with 500 pM 17β-estradiol (E2) or 1-5 nM anti-estrogens in hormone-depleted medium for 3 days. Note that the racemic mixture of acolbifene, EM-343, was used in the in vitro AP assay. AP activity was measured by incubating a chromogenic AP substrate, p-nitrophenyl phosphate, at 40° C. for 40 minutes followed by measuring the absorbance at 405 nm. Results were from a single representative experiment and reported as the mean percent induction relative to E2 from triplicate treatments, with error bars representing SEM.
FIG. 6. […] A) Comparison of inhibition of E2-stimulated AP activity of various benzopyran compounds (right) compared to published reference compounds (left). ECC-1 cells were treated with 100 nM anti-estrogens in the presence of 500 pM E2 and AP activity was measured as described in FIG. 2. Note that OP-1038 was statistically different from EM-343 and Gauthier compound Ia (p<0.0001 (exact p values stated in graph), calculated using Student's t-test). Results were from a single representative experiment and reported as the mean percent induction relative to E2 from triplicate treatments, with error bars representing SEM. […] IC50's were calculated using the least squares fit method. *Aragon Compound 28 was statistically different from equivalent dose of OP-1038 (p≦0.01, calculated using Student's t-test). […]
Method for performing the alkaline phosphatase (AP) assay. […] Absorbance was read at 405 nm using a plate spectophotometer. […]

SMILES | Antagonism of E2-stimulated proliferation [1] | Uterine wet weight, agonist mode (without E2) (mouse uterus) | Uterine wet weight, antagonist mode (+E2) (mouse uterus) | Inhibition of E2-stimulated AP activity [2]
CC1=C(c2ccc(O)cc2)C(c2ccc(OCCN3CC[C@@H](C)C3)cc2)Oc2cc(O)ccc21 (stereo partly drawn) [OP-1038, 3-(4-hydroxyphenyl)-4-methyl-2-(4-{2-[(3R)-3-methylpyrrolidin-1-yl]ethoxy}phenyl)-2H-chromen-7-ol] | improved potency; also recorded: potent antagonists | not significantly different from control or fulvestrant | not different from fulvestrant | more potent than Aragon Cpd. 28; also recorded: inhibit E2-stimulated AP activity; also recorded: more anti-estrogenic than EM-343 and EM-652
CC1=C(c2ccc(O)cc2)[C@H](c2ccc(OCCN3CC[C@@H](C)C3)cc2)Oc2cc(O)ccc21 [OP-1074, (2S)-3-(4-hydroxyphenyl)-4-methyl-2-(4-{2-[(3R)-3-methylpyrrolidin-1-yl]ethoxy}phenyl)-2H-chromen-7-ol] | improved potency; also recorded: potent antagonists | essentially pure anti-estrogen | complete anti-estrogen | inhibit E2-stimulated AP activity; also recorded: more anti-estrogenic than EM-343 and EM-652; also recorded: inhibited E2-stimulated AP activity in a dose dependent manner
